In patent publication US8986677B2, “Therapeutic compositions and methods” (Pop Test Cortisol LLC, priority 2012, dated 2015):

Key:
[1] = all phase I and phase II clinical trials performed with the compound; cited from earlier work
progesterone receptor = target: T1, progesterone receptor (Homo sapiens, UniProt P06401); conditions: cited from earlier work
T1 sequence (P06401 1-933): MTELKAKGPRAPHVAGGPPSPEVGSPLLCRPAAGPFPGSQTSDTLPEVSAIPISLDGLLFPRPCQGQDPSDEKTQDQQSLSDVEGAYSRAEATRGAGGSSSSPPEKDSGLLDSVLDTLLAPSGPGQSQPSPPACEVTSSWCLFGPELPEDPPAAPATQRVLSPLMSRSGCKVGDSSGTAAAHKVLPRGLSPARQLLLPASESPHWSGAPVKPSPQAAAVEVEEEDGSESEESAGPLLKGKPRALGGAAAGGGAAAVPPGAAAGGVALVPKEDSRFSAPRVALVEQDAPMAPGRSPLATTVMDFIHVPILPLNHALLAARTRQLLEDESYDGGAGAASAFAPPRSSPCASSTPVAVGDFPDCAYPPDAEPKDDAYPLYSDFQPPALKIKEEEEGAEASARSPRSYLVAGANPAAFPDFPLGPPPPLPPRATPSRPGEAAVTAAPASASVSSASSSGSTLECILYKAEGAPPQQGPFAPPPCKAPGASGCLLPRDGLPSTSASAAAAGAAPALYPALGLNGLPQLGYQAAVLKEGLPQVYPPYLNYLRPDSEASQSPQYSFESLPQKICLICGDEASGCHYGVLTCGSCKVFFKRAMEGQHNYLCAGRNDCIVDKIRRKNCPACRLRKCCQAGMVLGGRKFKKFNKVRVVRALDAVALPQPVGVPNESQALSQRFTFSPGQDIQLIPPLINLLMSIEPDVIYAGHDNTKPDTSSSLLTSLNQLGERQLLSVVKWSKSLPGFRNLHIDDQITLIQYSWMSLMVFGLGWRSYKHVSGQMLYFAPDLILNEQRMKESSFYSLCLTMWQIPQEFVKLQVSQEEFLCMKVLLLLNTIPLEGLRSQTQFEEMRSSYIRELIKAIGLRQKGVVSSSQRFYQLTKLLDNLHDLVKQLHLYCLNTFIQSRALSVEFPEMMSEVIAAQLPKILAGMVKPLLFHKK

[2] = tested on: organotypic hippocampal slice cultures, CA1 region pyramidal cells; test: Ethanol withdrawal toxicity (propidium iodide uptake) in organotypic hippocampal slice cultures; assay type: cell-based
Description: (FIG. 2A). […] Co-exposure to the selective glucocorticoid receptor antagonist ORG 34517 with ethanol and corticosterone prevented this withdrawal toxicity. Representative PI images above, (FIG. 2B). Results shown in graph form. *=P<0.05 vs control; **=P<0.05 vs EtOH WD+CORT.
Corticosterone's exacerbation of ethanol withdrawal toxicity is blocked by […] coadministration. […] (FIG. 2). […] Co-exposure to the selective glucocorticoid receptor antagonist ORG 34517 with ethanol and corticosterone prevented this withdrawal toxicity. Representative PI images above, graphed below. *=P<0.05 vs control; **=P<0.05 vs EtOH WD+CORT.

estrogen receptor = target: T2, estrogen receptor (Homo sapiens, UniProt P03372); conditions: cited from earlier work
T2 sequence (P03372 1-595): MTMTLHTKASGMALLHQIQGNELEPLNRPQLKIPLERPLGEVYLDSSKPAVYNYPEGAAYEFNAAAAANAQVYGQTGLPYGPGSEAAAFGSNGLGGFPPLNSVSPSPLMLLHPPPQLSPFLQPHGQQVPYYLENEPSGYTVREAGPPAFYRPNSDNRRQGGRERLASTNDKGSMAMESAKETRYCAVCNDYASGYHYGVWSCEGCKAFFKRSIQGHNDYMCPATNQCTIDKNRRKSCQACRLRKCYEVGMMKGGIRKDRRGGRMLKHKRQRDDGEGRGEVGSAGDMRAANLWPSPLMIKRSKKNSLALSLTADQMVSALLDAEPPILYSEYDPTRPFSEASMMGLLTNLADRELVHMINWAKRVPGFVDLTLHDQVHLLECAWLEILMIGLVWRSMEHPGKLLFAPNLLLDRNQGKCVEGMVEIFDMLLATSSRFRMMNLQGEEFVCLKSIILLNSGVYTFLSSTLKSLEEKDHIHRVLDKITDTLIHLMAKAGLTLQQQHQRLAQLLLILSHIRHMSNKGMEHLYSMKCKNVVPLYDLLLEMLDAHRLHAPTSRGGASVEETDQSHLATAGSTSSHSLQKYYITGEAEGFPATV

glucocorticoid receptor = target: T3, glucocorticoid receptor (Homo sapiens, UniProt P04150); conditions: cited from earlier work
T3 sequence (P04150 1-777): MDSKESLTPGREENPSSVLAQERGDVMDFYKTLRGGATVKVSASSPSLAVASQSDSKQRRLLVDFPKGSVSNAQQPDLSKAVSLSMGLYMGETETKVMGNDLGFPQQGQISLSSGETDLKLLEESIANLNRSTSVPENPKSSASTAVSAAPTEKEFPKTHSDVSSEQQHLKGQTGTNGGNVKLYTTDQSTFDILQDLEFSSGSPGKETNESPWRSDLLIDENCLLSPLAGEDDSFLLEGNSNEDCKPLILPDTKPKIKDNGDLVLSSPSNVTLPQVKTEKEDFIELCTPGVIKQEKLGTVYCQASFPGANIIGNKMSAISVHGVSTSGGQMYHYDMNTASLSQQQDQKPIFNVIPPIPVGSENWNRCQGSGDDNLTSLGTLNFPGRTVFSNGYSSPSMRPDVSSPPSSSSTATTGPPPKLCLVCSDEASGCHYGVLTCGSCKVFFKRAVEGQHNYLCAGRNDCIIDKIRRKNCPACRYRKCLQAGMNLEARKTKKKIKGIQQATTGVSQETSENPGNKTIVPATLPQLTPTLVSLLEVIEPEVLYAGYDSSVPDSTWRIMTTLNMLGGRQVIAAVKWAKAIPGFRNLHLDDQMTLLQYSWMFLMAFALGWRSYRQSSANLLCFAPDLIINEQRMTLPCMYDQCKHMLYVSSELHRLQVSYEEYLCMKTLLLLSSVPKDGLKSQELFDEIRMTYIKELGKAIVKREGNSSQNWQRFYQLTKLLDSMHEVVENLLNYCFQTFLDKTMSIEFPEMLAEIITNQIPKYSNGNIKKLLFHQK

SMILES: CC#C[C@]1(O)CC[C@H]2[C@@H]3CCC4=CC(=O)CCC4=C3[C@@H](c3ccc4c(c3)OCO4)C[C@@]21C [ORG 34517, (11β,17β)-11-(1,3-benzodioxol-5-yl)-17-hydroxy-17-(1-propynyl)estra-4,9-dien-3-one]
- significant toxicities and side effects [1]: none were identified
- cross-binding / affinity for progesterone receptor (progesterone receptor): without significant cross-binding
- ethanol withdrawal toxicity (propidium iodide uptake, CA1 region) ([2]; co-exposure with ethanol (50 mM) and corticosterone (1 μM), 1 day of ethanol withdrawal, P<0.05 vs EtOH WD+CORT): prevented
- cross-binding / affinity for estrogen receptor (estrogen receptor): without significant cross-binding
- behavioral symptoms of the ethanol withdrawal syndrome (adult male rats; 20 mg/kg s.c. once daily immediately prior to binge ethanol (i.g.) at 0800 hrs on 4 consecutive days, adult male rats, P<0.001 vs EtOH WD): significantly reduced
- reductions in whole body tremor and wet shakes (adult male rats; 20 mg/kg s.c. once daily prior to binge ethanol, 4 days, adult male rats): most evident
- behavior of ethanol-naïve rats (adult male rats; rat, in vivo): did not alter behavior in any manner
- glucocorticoid receptor binding affinity (glucocorticoid receptor): high

SMILES: C[C@]12C[C@H](O)[C@H]3[C@@H](CCC4=CC(=O)CC[C@@]43C)[C@@H]1CC[C@@H]2C(=O)CO [corticosterone]
- toxicity (propidium iodide uptake) in CA1 region pyramidal cells ([2]; corticosterone 1 μM with ethanol 50 mM, then 1 day of ethanol withdrawal in the presence of corticosterone): significant toxicity
- propidium iodide uptake, exposure alone ([2]; corticosterone alone): did not alter

SMILES: CCO [ethanol]
- peak blood ethanol levels (adult male rats; male, rat, in vivo, 4 days): 180.27-103.5
